Results taken from US12581252B2, “Substituted pyrrolo[3,4-b]pyridines as PI3K-α inhibitors” (Relay Therapeutics, Inc., priority 2020, dated 2026).

Biological target: H1047R PIK3CA enzyme (Homo sapiens, UniProt P42336, H1047R)
Experiment: ADP-Glo Biochemical PIK3CA Kinase Assay

H1047R PIK3CA enzyme, sequence (P42336 whole entry H1047R): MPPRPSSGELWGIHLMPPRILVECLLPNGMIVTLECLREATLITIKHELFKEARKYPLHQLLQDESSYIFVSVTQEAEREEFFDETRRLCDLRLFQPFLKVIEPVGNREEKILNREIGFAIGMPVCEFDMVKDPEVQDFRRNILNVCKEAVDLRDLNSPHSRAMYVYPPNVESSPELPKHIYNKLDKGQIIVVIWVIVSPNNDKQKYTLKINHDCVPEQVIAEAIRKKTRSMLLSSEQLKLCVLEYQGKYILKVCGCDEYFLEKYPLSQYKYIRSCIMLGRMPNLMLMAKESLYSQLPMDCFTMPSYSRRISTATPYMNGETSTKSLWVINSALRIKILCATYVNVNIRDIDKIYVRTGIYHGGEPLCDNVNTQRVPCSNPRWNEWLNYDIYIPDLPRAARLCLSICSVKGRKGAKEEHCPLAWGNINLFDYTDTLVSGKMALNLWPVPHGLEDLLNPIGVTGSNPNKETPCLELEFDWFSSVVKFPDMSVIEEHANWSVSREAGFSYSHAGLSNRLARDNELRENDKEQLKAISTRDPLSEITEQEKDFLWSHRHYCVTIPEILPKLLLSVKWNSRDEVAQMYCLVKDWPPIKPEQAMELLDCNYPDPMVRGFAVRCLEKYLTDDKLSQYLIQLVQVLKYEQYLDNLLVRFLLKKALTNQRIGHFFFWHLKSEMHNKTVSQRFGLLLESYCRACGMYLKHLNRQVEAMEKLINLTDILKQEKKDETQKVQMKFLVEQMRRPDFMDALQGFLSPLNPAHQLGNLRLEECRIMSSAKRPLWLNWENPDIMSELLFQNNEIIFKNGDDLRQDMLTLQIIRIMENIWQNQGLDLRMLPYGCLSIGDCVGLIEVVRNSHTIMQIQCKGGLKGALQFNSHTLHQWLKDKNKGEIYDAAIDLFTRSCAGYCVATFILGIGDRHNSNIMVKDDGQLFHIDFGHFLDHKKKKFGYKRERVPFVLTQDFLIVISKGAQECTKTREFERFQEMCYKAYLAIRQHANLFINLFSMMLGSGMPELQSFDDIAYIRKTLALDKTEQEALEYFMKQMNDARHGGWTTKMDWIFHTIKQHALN
H1047R PIK3CA enzyme, sequence (P27986 whole entry partner): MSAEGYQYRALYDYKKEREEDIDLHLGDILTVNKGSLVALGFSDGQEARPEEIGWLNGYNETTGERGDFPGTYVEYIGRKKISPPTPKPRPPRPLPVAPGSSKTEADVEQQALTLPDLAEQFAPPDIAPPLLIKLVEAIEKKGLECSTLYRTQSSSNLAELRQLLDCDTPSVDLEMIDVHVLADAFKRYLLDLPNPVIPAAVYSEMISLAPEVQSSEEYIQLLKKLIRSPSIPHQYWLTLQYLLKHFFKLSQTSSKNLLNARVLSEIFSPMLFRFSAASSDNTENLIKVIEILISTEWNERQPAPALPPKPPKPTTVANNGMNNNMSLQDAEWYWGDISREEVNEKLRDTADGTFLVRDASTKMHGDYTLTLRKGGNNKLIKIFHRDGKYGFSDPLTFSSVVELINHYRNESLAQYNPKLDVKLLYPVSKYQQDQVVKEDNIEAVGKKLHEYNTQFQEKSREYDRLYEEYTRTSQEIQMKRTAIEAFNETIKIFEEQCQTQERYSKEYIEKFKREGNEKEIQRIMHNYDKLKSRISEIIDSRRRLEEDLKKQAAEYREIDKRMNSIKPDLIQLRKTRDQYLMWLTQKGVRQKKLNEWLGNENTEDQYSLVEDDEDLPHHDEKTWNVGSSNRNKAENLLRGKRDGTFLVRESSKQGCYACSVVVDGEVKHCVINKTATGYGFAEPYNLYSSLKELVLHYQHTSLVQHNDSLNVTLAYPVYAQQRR

Compound Cc1ncc(-c2cc(NC(=O)c3cc(F)cc(C(F)(F)F)c3)c3c(c2)C(=O)NC3c2cc(F)ccc2Cl)c(C)n1 (centres unmarked) [Compound I-1092] has an IC50 of 100 to 500 nM.
O=C(Nc1cc(-c2cncnc2)cc2c1[C@@H](c1cc(F)ccc1Cl)NC2=O)c1cc(F)cc(C(F)(F)F)c1 [Compound I-1094] gave an IC50 of 500 to 1000 nM.
For CC(C)(O)Cn1cc(-c2cc(NC(=O)c3cc(F)cc(C(F)(F)F)c3)c3c(c2)C(=O)N[C@@H]3c2cc(F)ccc2Cl)cn1 [Compound I-1096], the IC50 was 10000 to 100000 nM.
In the case of O=C1NC(c2cc(F)ccc2Cl)c2c(N/C(=N\O)c3cc(F)cc(C(F)(F)F)c3)cccc21 (centres unmarked) [Compound I-1100], the IC50 is reported as ≤ 100 nM.
With COc1cnc(-c2cc(NC(=O)c3cc(F)cc(C(F)(F)F)c3)c3c(c2)C(=O)NC3c2cc(F)ccc2Cl)cn1 (centres unmarked) [Compound I-1103] the IC50 was ≤ 100 nM.
In the case of Nc1ncncc1-c1cc(NC(=O)c2cc(F)cc(C(F)(F)F)c2)c2c(c1)C(=O)NC2c1cc(F)ccc1Cl (centres unmarked) [Compound I-1106], the IC50 is reported as ≤ 100 nM.
With O=C1N[C@H](c2cc(F)ccc2Cl)c2c(Nc3nccc4c(C(F)(F)F)cc(F)cc34)cc(Br)cc21 [Compound I-1110] the IC50 was 1000 to 10000 nM.
For N#CC1(COc2cc(NC(=O)c3cc(F)cc(C(F)(F)F)c3)c3c(c2)C(=O)NC3c2cc(F)ccc2Cl)CC1 (centres unmarked) [Compound I-1113], the IC50 was ≤ 100 nM.
For O=C1NC(c2cc(F)ccc2Cl)c2c(NC(=O)c3cc(C(F)(F)F)cc(F)c3C3(O)COC3)cccc21 (centres unmarked) [Compound I-1114], the IC50 was 1000 to 10000 nM.
In the case of O=C(Nc1cc(Nc2ccno2)cc2c1C(c1cc(F)ccc1Cl)NC2=O)c1cc(F)cc(C(F)(F)F)c1 (centres unmarked) [Compound I-1115], the IC50 is reported as ≤ 100 nM.
Work on O=C1NC(c2cc(F)ccc2Cl)c2c(Nc3ncc(C(F)(F)F)cc3F)cc(Br)cc21 (centres unmarked) [Compound I-1118] yielded an IC50 of 500 to 1000 nM.
O=C(Nc1cc(Br)cc2c1C(c1cc(F)ccc1Cl)NC2=O)c1cc(F)cc(CF)c1 (centres unmarked) [Compound I-1119] was tested, and the IC50 was 500 to 1000 nM.
Cn1cc(Oc2cc(NC(=O)c3cc(F)cc(C(F)(F)F)c3)c3c(c2)C(=O)NC3c2cc(F)ccc2Cl)cn1 (centres unmarked) [Compound I-1120] showed an IC50 of 1000 to 10000 nM.
In the case of Cc1ncc(-c2cc(NC(=O)c3cc(F)cc(C(F)(F)F)c3)c3c(c2)C(=O)NC3c2cc(F)ccc2Cl)c(N)n1 (centres unmarked) [Compound I-1122], the IC50 is reported as ≤ 100 nM.
For N#Cc1cn(-c2cc(NC(=O)c3cc(F)cc(C(F)(F)F)c3)c3c(c2)C(=O)NC3c2cc(F)ccc2Cl)cn1 (centres unmarked) [Compound I-1127], the IC50 was ≤ 100 nM.
For O=C(Nc1cc(-n2cncc2F)cc2c1C(c1cc(F)ccc1Cl)NC2=O)c1cc(F)cc(C(F)(F)F)c1 (centres unmarked) [Compound I-1128], the IC50 was ≤ 100 nM.
N#CC1CC(Oc2cc(NC(=O)c3cc(F)cc(C(F)(F)F)c3)c3c(c2)C(=O)NC3c2cc(F)ccc2Cl)C1 (centres unmarked) [Compound I-1129] was tested, and the IC50 was ≤ 100 nM.
N#Cc1cc(Oc2cc(NC(=O)c3cc(F)cc(C(F)(F)F)c3)c3c(c2)C(=O)NC3c2cc(F)ccc2Cl)ccn1 (centres unmarked) [Compound I-1130] was tested, and the IC50 was ≤ 100 nM.
In the case of O=C(Nc1cc(OC2COC2)cc2c1C(c1cc(F)ccc1Cl)NC2=O)c1cc(F)cc(C(F)(F)F)c1 (centres unmarked) [Compound I-1131], the IC50 is reported as ≤ 100 nM.
O=C(Nc1cc(OC2CC(O)C2)cc2c1C(c1cc(F)ccc1Cl)NC2=O)c1cc(F)cc(C(F)(F)F)c1 (centres unmarked) [Compound I-1132] was tested, and the IC50 was 100 to 500 nM.
O=C1NC(c2cc(F)ccc2Cl)c2c(NC(=O)C34CC5CC(CC(F)(C5)C3)C4)cccc21 (centres unmarked) [Compound I-1133] was tested, and the IC50 was 500 to 1000 nM.
O=C(Nc1cc(C(O)COCCO)cc2c1C(c1cc(F)ccc1Cl)NC2=O)c1cc(F)cc(C(F)(F)F)c1 (centres unmarked) [Compound I-1134] gave an IC50 of 100 to 500 nM.
In the case of O=C(Nc1cc(OC2CCOCC2)cc2c1C(c1cc(F)ccc1Cl)NC2=O)c1cc(F)cc(C(F)(F)F)c1 (centres unmarked) [Compound I-1135], the IC50 is reported as ≤ 100 nM.
With Cn1nccc1-c1cc(NC(=O)c2cc(F)cc(C(F)(F)F)c2)c2c(c1)C(=O)N[C@H]2c1cc(F)ccc1Cl [Compound I-1136] the IC50 was ≤ 100 nM.
Compound Cn1nccc1-c1cc(NC(=O)c2cc(F)cc(C(F)(F)F)c2)c2c(c1)C(=O)N[C@@H]2c1cc(F)ccc1Cl [Compound I-1137] has an IC50 of 1000 to 10000 nM.
In the case of CNC1(c2cc(F)ccc2Cl)NC(=O)c2cc(C[S+](C)[O-])cc(NC(=O)c3cc(F)cc(C(F)(F)F)c3)c21 (centres unmarked) [Compound I-1138], the IC50 is reported as 1000 to 10000 nM.
Compound CC(C)(C)C(=O)Nc1cc(Br)cc2c1C(c1cc(F)ccc1Cl)NC2=O (centres unmarked) [Compound I-1139] has an IC50 of 1000 to 10000 nM.
N#Cc1cnn(-c2cc(NC(=O)c3cc(F)cc(C(F)(F)F)c3)c3c(c2)C(=O)NC3c2cc(F)ccc2Cl)c1 (centres unmarked) [Compound I-1140] was tested, and the IC50 was ≤ 100 nM.
O=C(Nc1cc(C2(O)COCC2O)cc2c1C(c1cc(F)ccc1Cl)NC2=O)c1cc(F)cc(C(F)(F)F)c1 (centres unmarked) [Compound I-1141] showed an IC50 of 100 to 500 nM.
In the case of O=C(Nc1cc(C2CCCOC2)cc2c1C(c1cc(F)ccc1Cl)NC2=O)c1cc(F)cc(C(F)(F)F)c1 (centres unmarked) [Compound I-1142], the IC50 is reported as ≤ 100 nM.
COc1ccnc(Oc2cc(NC(=O)c3cc(F)cc(C(F)(F)F)c3)c3c(c2)C(=O)NC3c2cc(F)ccc2Cl)n1 (centres unmarked) [Compound I-1143] showed an IC50 of 100 to 500 nM.
In the case of Cn1nccc1Nc1cc(NC(=O)c2cc(F)cc(C(F)(F)F)c2)c2c(c1)C(=O)N[C@H]2c1cc(F)ccc1Cl [Compound I-1144], the IC50 is reported as ≤ 100 nM.
For Cn1nccc1Nc1cc(NC(=O)c2cc(F)cc(C(F)(F)F)c2)c2c(c1)C(=O)N[C@@H]2c1cc(F)ccc1Cl [Compound I-1145], the IC50 was 1000 to 10000 nM.
In the case of COc1ccc(Oc2cc(NC(=O)c3cc(F)cc(C(F)(F)F)c3)c3c(c2)C(=O)NC3c2cc(F)ccc2Cl)nn1 (centres unmarked) [Compound I-1147], the IC50 is reported as ≤ 100 nM.
COc1nccc(Oc2cc(NC(=O)c3cc(F)cc(C(F)(F)F)c3)c3c(c2)C(=O)NC3c2cc(F)ccc2Cl)n1 (centres unmarked) [Compound I-1148] was tested, and the IC50 was ≤ 100 nM.
O=C(Nc1cc(OC2CS(=O)(=O)C2)cc2c1C(c1cc(F)ccc1Cl)NC2=O)c1cc(F)cc(C(F)(F)F)c1 (centres unmarked) [Compound I-1149] showed an IC50 of 1000 to 10000 nM.
For C[S+]([O-])c1ccccc1-c1cc(NC(=O)c2cc(F)cc(C(F)(F)F)c2)c2c(c1)C(=O)NC2c1cc(F)ccc1Cl (centres unmarked) [Compound I-1150], the IC50 was ≤ 100 nM.
In the case of COc1ncc(-c2cc(NC(=O)c3cc(F)cc(C(F)(F)F)c3)c3c(c2)C(=O)NC3c2cc(F)ccc2Cl)c(N)n1 (centres unmarked) [Compound I-1151], the IC50 is reported as 100 to 500 nM.
For Cc1ncccc1-c1cc(NC(=O)c2cc(F)cc(C(F)(F)F)c2)c2c(c1)C(=O)NC2c1cc(F)ccc1Cl (centres unmarked) [Compound I-1152], the IC50 was ≤ 100 nM.
Nc1ncc(C#Cc2cc(NC(=O)c3cc(F)cc(C(F)(F)F)c3)c3c(c2)C(=O)NC3c2cc(F)ccc2Cl)cn1 (centres unmarked) [Compound I-1153] was tested, and the IC50 was ≤ 100 nM.
O=C(Nc1cc(C#CC2(O)COC2)cc2c1C(c1cc(F)ccc1Cl)NC2=O)c1cc(F)cc(C(F)(F)F)c1 (centres unmarked) [Compound I-1154] was tested, and the IC50 was ≤ 100 nM.
In the case of Cn1cc(C#Cc2cc(NC(=O)c3cc(F)cc(C(F)(F)F)c3)c3c(c2)C(=O)NC3c2cc(F)ccc2Cl)cn1 (centres unmarked) [Compound I-1155], the IC50 is reported as ≤ 100 nM.
For N#CC1CC(c2cc(NC(=O)c3cc(F)cc(C(F)(F)F)c3)c3c(c2)C(=O)NC3c2cc(F)ccc2Cl)C1 (centres unmarked) [Compound I-1175], the IC50 was ≤ 100 nM.
Work on O=C(Nc1cc(C(F)(F)F)ccc1Cl)Nc1cc(Br)cc2c1C(c1cc(F)ccc1Cl)NC2=O (centres unmarked) [Compound I-1176] yielded an IC50 of 100 to 500 nM.
Compound O=C1Cc2cc(NC(=O)c3cc(F)cc(C(F)(F)F)c3)ccc2C(c2ccccc2Cl)N1 (centres unmarked) [Compound I-1177] has an IC50 of 1000 to 10000 nM.
In the case of O=C1Cc2cccc(NC(=O)c3cc(F)cc(C(F)(F)F)c3)c2C(c2ccccc2Cl)N1 (centres unmarked) [Compound I-1178], the IC50 is reported as 1000 to 10000 nM.
In the case of O=C1NC(c2cc(F)ccc2Cl)c2c(NC(=O)C34CC5CC(CC(Cl)(C5)C3)C4)cc(Br)cc21 (centres unmarked) [Compound I-1179], the IC50 is reported as ≤ 100 nM.
For O=C1NC(c2cc(F)ccc2Cl)c2c(NC(=O)C34CC5CC(F)(CC(F)(C5)C3)C4)cccc21 (centres unmarked) [Compound I-1180], the IC50 was 100 to 500 nM.
For O=C(Nc1cc(NCC2(O)CC2)cc2c1C(c1cc(F)ccc1Cl)NC2=O)c1cc(F)cc(C(F)(F)F)c1 (centres unmarked) [Compound I-1181], the IC50 was ≤ 100 nM.
For O=C1NC(c2cc(F)ccc2Cl)c2c(NC(=O)C34C5C6C7C5C3C7C64)cc(Br)cc21 (centres unmarked) [Compound I-1182], the IC50 was 1000 to 10000 nM.
In the case of O=C1NC(c2cc(F)ccc2Cl)c2c(NC(=O)C34CC5CC(C3)CC(C(F)(F)F)(C5)C4)cc(Br)cc21 (centres unmarked) [Compound I-1183], the IC50 is reported as ≤ 100 nM.
For O=C(Nc1cc(OC2CCOC2)cc2c1C(c1cc(F)ccc1Cl)NC2=O)c1cc(F)cc(C(F)(F)F)c1 (centres unmarked) [Compound I-1184], the IC50 was ≤ 100 nM.
For O=C(Nc1cc(C#Cc2ccccn2)cc2c1C(c1cc(F)ccc1Cl)NC2=O)c1cc(F)cc(C(F)(F)F)c1 (centres unmarked) [Compound I-1185], the IC50 was ≤ 100 nM.
In the case of CCCCC(C)(O)c1cc(NC(=O)c2cc(F)cc(C(F)(F)F)c2)c2c(c1)C(=O)NC2c1cc(F)ccc1Cl (centres unmarked) [Compound I-1186], the IC50 is reported as ≤ 100 nM.
O=C(Nc1cc(C2CCOCC2)cc2c1C(c1cc(F)ccc1Cl)NC2=O)c1cc(F)cc(C(F)(F)F)c1 (centres unmarked) [Compound I-1187] was tested, and the IC50 was ≤ 100 nM.
With CC(O)(c1cc(NC(=O)c2cc(F)cc(C(F)(F)F)c2)c2c(c1)C(=O)NC2c1cc(F)ccc1Cl)c1ccccn1 (centres unmarked) [Compound I-1188] the IC50 was ≤ 100 nM.
For O=C(Nc1cc(N2CCOc3ccccc32)cc2c1C(c1cc(F)ccc1Cl)NC2=O)c1cc(F)cc(C(F)(F)F)c1 (centres unmarked) [Compound I-1189], the IC50 was ≤ 100 nM.
With Cc1cnc2ccc(-c3cc(NC(=O)c4cc(F)cc(C(F)(F)F)c4)c4c(c3)C(=O)NC4c3cc(F)ccc3Cl)nn12 (centres unmarked) [Compound I-1190] the IC50 was ≤ 100 nM.
With CC(C)(O)C#Cc1cc(NC(=O)c2cc(F)cc(C(F)(F)F)c2)c2c(c1)C(=O)NC2c1cc(F)ccc1Cl (centres unmarked) [Compound I-1191] the IC50 was ≤ 100 nM.
O=C(Nc1cc(C#CC2CC(F)(F)C2)cc2c1C(c1cc(F)ccc1Cl)NC2=O)c1cc(F)cc(C(F)(F)F)c1 (centres unmarked) [Compound I-1194] gave an IC50 of 100 to 500 nM.
In the case of CS(=O)(=O)c1ccccc1-c1cc(NC(=O)c2cc(F)cc(C(F)(F)F)c2)c2c(c1)C(=O)NC2c1cc(F)ccc1Cl (centres unmarked) [Compound I-1195], the IC50 is reported as ≤ 100 nM.
O=C(Nc1cc(C2CS(=O)(=O)C2)cc2c1C(c1cc(F)ccc1Cl)NC2=O)c1cc(F)cc(C(F)(F)F)c1 (centres unmarked) [Compound I-1196] was tested, and the IC50 was ≤ 100 nM.
COc1ccccc1-c1cc(NC(=O)c2cc(F)cc(C(F)(F)F)c2)c2c(c1)C(=O)NC2c1cc(F)ccc1Cl (centres unmarked) [Compound I-1197] gave an IC50 of 100 to 500 nM.
With O=C(Nc1cc(OC2CCC2(F)F)cc2c1C(c1cc(F)ccc1Cl)NC2=O)c1cc(F)cc(C(F)(F)F)c1 (centres unmarked) [Compound I-1198] the IC50 was ≤ 100 nM.
In the case of Cn1ccnc1C(C)(O)c1cc(NC(=O)c2cc(F)cc(C(F)(F)F)c2)c2c(c1)C(=O)NC2c1cc(F)ccc1Cl (centres unmarked) [Compound I-1199], the IC50 is reported as ≤ 100 nM.
